Data reported in paper PMC3973950, “Synthesis of 5-arylidine amino-1,3,4-thiadiazol-2-[(N-substituted benzyol)]sulphonamides endowed with potent antioxidants and anticancer activity induces growth inhibition in HEK293, BT474 and NCI-H226 cells” (Medicinal Chemistry Research, 2013).

Columns and labels:
[1] = In vitro cytotoxicity by MTT assay, NCI-H226; type: cell-based; conditions: human, NCI-H226 lung cancer cells, 0.015 μM, read-out: % Cytotoxicity (100 − % cell survival) of NCI-H226 cell line
Outline: (§1)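 First, trypsinized cells went into wells at roughly 10,000 per well for 24 h. Next, medium was replaced with test compounds for 72 h at 37 °C. Finally, MTT was added for 4 h and the propanol-solubilized formazan read at 490 nm.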

[2] = test system: NCI-H226 (lung cancer cell line); test: In vitro cytotoxicity by MTT assay, NCI-H226; type: cell-based; conditions: Homo sapiens, 72 h; for cytotoxicity at 0.005 µM: NCI-H226, 0.005 μM; for cytotoxicity at 0.005 µM / cytotoxicity at 0.045 µM / cytotoxicity at 0.13 µM / cytotoxicity at 0.41 µM / cytotoxicity at 1.23 µM / cytotoxicity at 3.7 µM / cytotoxicity at 11.11 µM / cytotoxicity at 33.33 µM / cytotoxicity at 100 µM: read-out: % Cytotoxicity (100 − % cell survival) of NCI-H226 cell line; for cytotoxicity at 0.045 µM: NCI-H226, 0.045 μM; for cytotoxicity at 0.13 µM: NCI-H226, 0.13 μM; for cytotoxicity at 0.41 µM: NCI-H226, 0.41 μM; for cytotoxicity at 1.23 µM: NCI-H226, 1.23 μM; for cytotoxicity at 3.7 µM: NCI-H226, 3.7 μM; for cytotoxicity at 11.11 µM: NCI-H226, 11.11 μM; for cytotoxicity at 33.33 µM: NCI-H226, 33.33 μM; for cytotoxicity at 100 µM: NCI-H226, 100 μM
Outline: as §1

[3] = In vitro cytotoxicity by MTT assay, HEK 293; type: cell-based, human; conditions: human, HEK 293 cells; for cytotoxicity at 72 h, 0.005 µM / cytotoxicity at 72 h, 0.015 µM / cytotoxicity at 72 h, 0.045 µM / cytotoxicity at 72 h, 0.13 µM / cytotoxicity at 72 h, 0.41 µM / cytotoxicity at 72 h, 1.23 µM / cytotoxicity at 72 h, 3.7 µM / cytotoxicity at 72 h, 11.11 µM / cytotoxicity at 72 h, 33.33 µM / cytotoxicity at 72 h, 100 µM: read-out: % cytotoxicity (100 − % cell survival) of HEK 293 cell line
Outline: as §1

[4] = test system: HEK 293, M468 and NCI-H226; test: In vitro cytotoxicity by MTT assay, summary over all cell lines; type: cell-based; conditions: on all cell lines
Experimental: The cancer cell line cultures of HEK 293 ([…]), BT474 (breast cancer cell line) and NCI-H226 (lung cancer) were obtained from Pasteur Institute of India, Coonoor, India, and were cultured in RPMI-1640 and 10 % heat-[…] New born calf serum with antibiotics [penicillin ([…]), streptomycin (100 μg/mL) and amphotericin B (25 μg/mL)]. The cells were maintained at 37 °C in a humidified atmosphere with 5 % CO2 and were subcultured twice a week.
The monolayer cell culture (100 μL) was trypsinized, and the cell count was adjusted to […] using medium containing 10 % new born calf serum. To each well of the 96-well microtitre plate, the diluted cell suspension (approximately 10,000 cells) (0.1 mL) was added and kept for 24 h in incubator at 37 °C in 5 % CO2 atmosphere for cell monolayer formation. After 24 h, when a partial monolayer was formed at the bottom of the well, the supernatant was flicked off, the monolayer was washed once, and different drugs, i.e. synthesized compounds (100 μL), were added to the cells in microtitre plates. The plates were then incubated at 37 °C for 3 days in 5 % CO2 atmosphere, and microscopic examination was carried out and observations recorded every 24 h. After 72 h, the sample solution in the wells was flicked off; MTT dye ([…]) was added to each well; plates were gently shaken and incubated for 4 h at 37 °C in 5 % CO2 incubator. The supernatant was removed and propanol (50 μL) was added; the plates were gently shaken to solubilize the formed formazan. The absorbance was measured using a microplate reader at a wavelength of 490 nm (Edmondson et al., [1988]; Prasad et al., [2005]; Chiruvella et al., [2008]; Chang et al., [2007]).

[5] = test system: BT474 (breast cancer cell line); test: In vitro cytotoxicity by MTT assay, BT474; type: cell-based; conditions: Homo sapiens, 72 h, read-out: % cytotoxicity (100 − % cell survival) of BT474 cell line; for cytotoxicity at 0.005 µM: BT-474, 0.005 μM; for cytotoxicity at 0.015 µM: BT-474, 0.015 μM; for cytotoxicity at 0.045 µM: BT-474, 0.045 μM; for cytotoxicity at 0.13 µM: BT-474, 0.13 μM; for cytotoxicity at 0.41 µM: BT-474, 0.41 μM; for cytotoxicity at 1.23 µM: BT-474, 1.23 μM; for cytotoxicity at 3.7 µM: BT-474, 3.7 μM; for cytotoxicity at 11.11 µM: BT-474, 11.11 μM; for cytotoxicity at 33.33 µM: BT-474, 33.33 μM; for cytotoxicity at 100 µM: BT-474, 100 μM
Outline: as §1

| Structure (SMILES) | cytotoxicity at 72 h, 0.015 µM [1] | cytotoxicity at 0.005 µM [2] | cytotoxicity at 0.045 µM [2] | cytotoxicity at 0.13 µM [2] | cytotoxicity at 0.41 µM [2] | cytotoxicity at 1.23 µM [2] | cytotoxicity at 3.7 µM [2] | cytotoxicity at 11.11 µM [2] | cytotoxicity at 33.33 µM [2] | cytotoxicity at 100 µM [2] | cytotoxicity at 72 h, 0.005 µM [3] | cytotoxicity at 72 h, 0.015 µM [3] | cytotoxicity at 72 h, 0.045 µM [3] | cytotoxicity at 72 h, 0.13 µM [3] | cytotoxicity at 72 h, 0.41 µM [3] | cytotoxicity at 72 h, 1.23 µM [3] | cytotoxicity at 72 h, 3.7 µM [3] | cytotoxicity at 72 h, 11.11 µM [3] | cytotoxicity at 72 h, 33.33 µM [3] | cytotoxicity at 72 h, 100 µM [3] | further results |
| --- | --- | --- | --- | --- | --- | --- | --- | --- | --- | --- | --- | --- | --- | --- | --- | --- | --- | --- | --- | --- | --- |
| CC(=O)Nc1ccc(S(=O)(=O)Nc2nnc(S(=O)(=O)NC(=O)c3ccc([N+](=O)[O-])cc3)s2)cc1 [Compound 6e] | 41.2% | 38.8% | 42.4% | 45.4% | 47.6% | 48.6% | 49.2% | 50.8% | 51.1% | 54.5% | 39.1% | 42% | 42.7% | 43.4% | 45.3% | 47.1% | 49.1% | 49.9% | 51.2% | 55% | cytotoxic activity compared with all synthesized compounds [4]: moderate activity; cytotoxicity at 0.005 µM [5]: 27.1%; cytotoxicity at 0.015 µM [5]: 28%; cytotoxicity at 0.045 µM [5]: 28.1%; cytotoxicity at 0.13 µM [5]: 28.7%; cytotoxicity at 0.41 µM [5]: 29.4%; cytotoxicity at 1.23 µM [5]: 30.1%; cytotoxicity at 3.7 µM [5]: 31.1%; cytotoxicity at 11.11 µM [5]: 32.5%; cytotoxicity at 33.33 µM [5]: 34.8%; cytotoxicity at 100 µM [5]: 37.3% |
| CC(=O)Nc1ccc(S(=O)(=O)Nc2nnc(S(=O)(=O)NC(=O)c3cccc([N+](=O)[O-])c3)s2)cc1 [Compound 6f] | 44.9% | 41.3% | 46.5% | 48.3% | 51.3% | 54.6% | 55.2% | 57.1% | 59.6% | 66% | 39.3% | 42.2% | 45.4% | 47.2% | 49.1% | 51.2% | 54.2% | 58.6% | 59.3% | 62.4% | CC50 (50% cytotoxic concentration) at 72 h ([3]; HEK 293, concentration at which 50 % of the cells are dead, read-out: CTCC50 (cytotoxicity concentration)): 1.12 µM; cytotoxic activity compared with all synthesized compounds [4]: more potent; cytotoxicity at 0.005 µM [5]: 29.1%; cytotoxicity at 0.015 µM [5]: 30.1%; cytotoxicity at 0.045 µM [5]: 32.1%; cytotoxicity at 0.13 µM [5]: 33.4%; cytotoxicity at 0.41 µM [5]: 35.8%; cytotoxicity at 1.23 µM [5]: 37.2%; cytotoxicity at 3.7 µM [5]: 40.6%; cytotoxicity at 11.11 µM [5]: 42.2%; cytotoxicity at 33.33 µM [5]: 45.3%; cytotoxicity at 100 µM [5]: 50.8% |
| Nc1ccc(S(=O)(=O)Nc2nnc(S(=O)(=O)NC(=O)c3cccc([N+](=O)[O-])c3)s2)cc1 [Compound 7f] | 39.3% | 38.8% | 40.1% | 42.6% | 46.1% | 52.1% | 56.4% | 60.7% | 65.8% | 68% | 33.2% | 35.1% | 36% | 37% | 37.5% | 38.7% | 39.5% | 40.6% | 41.2% | 43.8% | CC50 ([2]; NCI-H226, concentration at which 50 % of the cells are dead, read-out: CTC50 (cytotoxicity concentration)): 1.78 µM; cytotoxic activity compared with all synthesized compounds [4]: more potent; cytotoxicity at 0.005 µM [5]: 42.4%; cytotoxicity at 0.015 µM [5]: 45.8%; cytotoxicity at 0.045 µM [5]: 47.2%; cytotoxicity at 0.13 µM [5]: 50.1%; cytotoxicity at 0.41 µM [5]: 52.2%; cytotoxicity at 1.23 µM [5]: 54.2%; cytotoxicity at 3.7 µM [5]: 56.7%; cytotoxicity at 11.11 µM [5]: 58.6%; cytotoxicity at 33.33 µM [5]: 60.3%; cytotoxicity at 100 µM [5]: 64.1% |
